# Assay results published in US20020019412A1, “MODULATORS OF PROTEIN TYROSINE PHOSPHATASES (PTPASES)” (priority 1998, published 2002).
# pKi: −log10 of the molar value. Where a name gives a salt, the structure may show the parent alone.
# What was measured:
# PTP1B = biological target: T1, PTP1B (Homo sapiens, UniProt P18031); test: Inhibition of truncated PTP1B, p-nitrophenyl phosphate substrate; assay type: biochemical; conditions: truncated PTP1B (first 321 amino acids) expressed in E. coli; pNPP substrate; pH 5.5; 25° C., 60 minutes
# T1 construct: a truncated form of PTP1B (corresponding to the first 321 amino acids); made in house; host or cells: E. coli
# T1 sequence (P18031 1-321): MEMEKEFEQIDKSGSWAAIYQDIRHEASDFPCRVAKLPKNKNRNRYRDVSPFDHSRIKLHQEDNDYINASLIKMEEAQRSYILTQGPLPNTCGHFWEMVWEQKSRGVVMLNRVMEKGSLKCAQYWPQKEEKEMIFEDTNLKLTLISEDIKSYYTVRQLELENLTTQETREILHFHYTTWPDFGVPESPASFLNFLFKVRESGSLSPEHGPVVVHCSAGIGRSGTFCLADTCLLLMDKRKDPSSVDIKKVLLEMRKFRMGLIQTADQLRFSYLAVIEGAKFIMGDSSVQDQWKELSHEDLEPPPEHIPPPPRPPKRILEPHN
# Description: The compounds are evaluated for biological activity with a truncated form of PTP1B (corresponding to the first 321 amino acids), which is expressed in E. coli and purified to apparent homogeneity using published procedures well-known to those skilled in the art. The enzyme reactions are carried out using standard conditions essentially as described by Burke et al. (Biochemistry 35; 15989-15996 (1996)). The assay conditions are as follows. Appropriate concentrations of the compounds of the invention are added to the reaction mixtures containing different concentrations of the substrate, p-nitrophenyl phosphate (range: 0.16 to 10 mM—final assay concentration). The buffer used is 100 mM sodium acetate pH 5.5, 50 mM sodium chloride, 0.1% (w/v) bovine serum albumin and 5 mM dithiothreitol (total volume […]). The reaction is started by addition of the enzyme and carried out in microtiter plates at 25° C. for 60 minutes. The reactions are stopped by addition of NaOH. The enzyme activity is determined by measurement of the absorbance at 405 nm with appropriate corrections for absorbance at 405 nm of the compounds and p-nitrophenyl phosphate. The data are analyzed using nonlinear regression fit to classical Michaelis Menten enzyme kinetic models. Inhibition is expressed as Ki values in μM.
melting point [°C],pKi (PTP1B),Structure (SMILES)
> 250,,"O=C(O)C(=O)Nc1c(C(=O)O)sc2ncccc12 (as salt: sodium) [Example 1, 3-(Oxalyl-amino)-thieno[2,3-b]pyridine-2-carboxylic acid, mono sodium salt]"
,3.48,"O=C(O)C(=O)Nc1c(C(=O)O)sc2ncccc12 [Example 1, 3-(Oxalyl-amino)-thieno[2,3-b]pyridine-2-carboxylic acid, mono sodium salt]"
